{"source": "patent US9089514B2", "about": "“Composition and method for inhibiting biogenic sulfide generation” (Arkion Life Sciences, priority 2010, dated 2015)", "type_in_all_cases": "cell-based, Prudhoe Bay sulfate reducing bacteria", "key": {"[1]": {"tested_on": "sulfate reducing bacteria (SRB) biofilms", "experiment": "Test Series #1: inhibition of H2S biogeneration from SRB biofilms on granite chips", "conditions": "for Sulfides Day 1: day 1 after treatment; for Sulfides Day 1 / Sulfides Day 2 / Sulfides Day 3: THPS 51 ppmw, AQ or AHQ (AHQ-slurry-1) 25 ppmw per tube, 30° C.; for Sulfides Day 2: day 2 after treatment; for Sulfides Day 3: day 3 after treatment", "method": "(§1) 1. Load 7 grams of crushed granite chips into 15-ml culture tubes; autoclave.\n(§2) 2. Prepare an inoculum by adding a culture of Prudhoe Bay sulfate reducing bacteria to a flask containing an appropriate iron-free culture medium for sulfate reducing bacteria that further contains 90% deaerated artificial sea water. Incubate bacteria anaerobically at 30° C. for 3-4 days.\n(§3) 3. Fill each 15 ml culture tube containing granite chips with the inoculum; incubate tubes anaerobically at 30° C. for 7-11 days in a Lab-Line Orbit Environ-Shaker set at 30° C. and 120 rpm. All incubation steps for the bacteria in the culture tubes were performed is in the Environ-Shaker.\n(§4) 4. Pour off spent medium and fill with fresh medium. Incubate for 6-7 days then replace medium with fresh medium again. Repeat medium change after 4-8 days and incubate for 3-5 additional days.\n(§5) 5. Treat the biofilms that have grown on the granite chips as described below. Incubate at 30° C.\n(§6) 6. Monitor the aqueous sulfide content in the tubes daily for up to three days, beginning the day after treatment, to determine the effectiveness of each treatment option on generation of hydrogen sulfide. Sulfide dissolved in the medium was determined in mg/L using Hach Method 8131 for the Hach DR-2010 spectrophotometer. The method utilizes methylene blue to measure total sulfides. The sulfide level in each tube was determined by gently inverting the tube several times, uncapping the tube and quickly removing a 125 μl aliquot of solution, and recapping the tube. The aliquot was diluted in 24.9 ml of deionized water in a quartz cuvette for the Hach procedure. The procedure is summarized in Table 1 for three separate test series.\nFollowing the growth of the sulfate reducing bacteria (SRB) biofilms on the granite chips in the culture tubes, the biofilms were treated by injecting the appropriate test solution and then gently tumbling the tubes for two minutes on a Barnstead/Thermolyne Labquake Tube Shaker to allow the treatment solution to dynamically contact the biofilms.\nTest compound solutions were injected into the tubes. THPS was added to 51 ppmw per tube. AQ and AHQ-slurry-1 were added to 25 ppmw AQ or AHQ per tube. Each tube contained about 14 ml of medium. The tubes were tumbled for two minutes, then moved to a nitrogen glove bag. The liquid was removed and the tubes were washed once with is medium and then refilled with medium. The tubes were then tumbled once more for two minutes before being placed in a Lab-Line Orbit Environ-Shaker set at 30° C. and 120 rpm for incubation.\nControl tubes contained biofilms on granite chips and culture medium, but no test compound. Control tubes were otherwise handled as described above for test-compound tubes.\nIn THPS-treated tubes all of the residual THPS was removed so that biocidal activity occurred only during the contact time while tumbling. In AQ and AHQ treated tubes, residual test solutions were allowed to remain in the tubes to simulate treatment in a tank, where AQ or AHQ settles in the biofilm/sludge at the bottom of the vessel. Treatments were performed in duplicate."}, "[2]": {"tested_on": "sulfate reducing bacteria (SRB) biofilms", "experiment": "Test Series #3b: simulated gravity settling, AQ vs AHQ-slurry-2, sulfide monitoring", "method": "as §6\n(§7) Gravity settling in the tank was simulated by spinning the culture tubes after treatment in a laboratory centrifuge at 2000 to 2700 rpm. The AQ or AHQ particles then “settled” to the bottom of the tube and were able to deposit into the biofilm on the granite chips. The medium above the granite chips was then removed and replaced with fresh medium. The tubes were then incubated at 30° C. in the Lab-Line Orbit Environ-Shaker. The concentration of AQ or AHQ in the removed medium was analyzed to determine the amount of AQ or AHQ deposited in the biofilm. Experiments were run with duplicate samples.\nTest Series #3b was performed with the same procedure as Test Series #3a to compare the efficacy of the AQ test mixture (AQ) with that of AHQ-slurry-2 at the same AHQ or AQ mass loading (0.254 mg). The tubes were spun for 20 seconds."}, "[3]": {"tested_on": "sulfate reducing bacteria (SRB) biofilms", "experiment": "Test Series #2: AQ, AHQ and AQ:AHQ slurries, sulfide monitoring in SRB biofilm tubes", "conditions": "for Sulfides Day 1: day 1, same combined mass of active AQ plus AHQ; for Sulfides Day 1 / Sulfides Day 2 / Sulfides Day 3: AHQ-slurry-2 used; for Sulfides Day 2: day 2, same combined mass of active AQ plus AHQ; for Sulfides Day 3: day 3, same combined mass of active AQ plus AHQ", "method": "as §1, §2, §3, §4, §5, §6\n(§8) This test series was performed to further compare the efficacy of slurries of AHQ and AQ and combinations of AHQ/AQ in slurries in controlling H2S emissions. AHQ-slurry-2 was used in this series of experiments. The tests were performed by first removing the spent medium from the tubes, refilling with fresh medium, treating with the test solution, tumbling the tubes for two minutes, and then incubating at 30° C. in the Lab-Line Orbit Environ-Shaker.\nEach test was made with the same combined mass of active AQ plus AHQ. Results, as summarized in Table 3 and FIG. 2, confirmed the results of Series #1 in that all treatments were effective compared with the control."}, "[4]": {"tested_on": "sulfate reducing bacteria (SRB) biofilms", "experiment": "AHQ di-alkali salt solution vs AHQ-slurry-2 by the Test Series #2 procedure", "conditions": "18 ppmw AHQ", "method": "as §6, §8\nEach test treatment contained 18 ppmw AHQ. […] However, under some circumstances, larger particle sizes are preferable. […]"}, "[5]": {"tested_on": "sulfate reducing bacteria (SRB) biofilms", "experiment": "Test Series #3a: simulated gravity settling in tank (centrifugation), sulfide monitoring", "conditions": "0.254 mg AHQ", "method": "as §6, §7\nTwo series of tests were performed with this procedure. Series #3a compared the efficacy of treating with the AHQ di-alkali salt test solution (AHQ) and the AHQ test mixture #2 (AHQ-slurry-2) at the same AHQ mass loading (0.254 mg AHQ). Two different centrifugation times (20 sec, 60 sec) were utilized in Test Series #3a to represent two different tank residence times."}}, "note": "Several values for one entry are separate records, joined by “and”; a condition that tells them apart may be missing. Identical values can stand only once."}
{"molecule": "Oc1c2ccccc2c(O)c2ccccc12", "note": "[AHQ, anthrahydroquinone]", "values": [{"measurement": "inhibiting H2S biogeneration from SRB biofilms (comparison in words)", "setting": "[1]", "result": "superior to THPS, AQ, and the combination of THPS and AQ"}, {"measurement": "Sulfides Day 1", "setting": "[1]", "result": "9.2 mg/L and 11.2 mg/L"}, {"measurement": "Sulfides Day 2", "setting": "[1]", "result": "23 mg/L and 27 mg/L"}, {"measurement": "Sulfides Day 3", "setting": "[1]", "result": "30.6 mg/L and 31 mg/L"}, {"measurement": "inhibiting H2S generation (comparison in words)", "setting": "[2]", "result": "superior to AQ in inhibiting H2S generation"}, {"measurement": "inhibiting the generation of H2S (comparison in words)", "setting": "[3]", "result": "more effective than AQ solution alone or AHQ/AQ neutral slurry combinations"}, {"measurement": "Sulfides Day 1", "setting": "[3]", "result": "22.2 mg/L and 19.6 mg/L"}, {"measurement": "Sulfides Day 2", "setting": "[3]", "result": "31 mg/L and 26.6 mg/L"}, {"measurement": "Sulfides Day 3", "setting": "[3]", "result": "36.8 mg/L and 36.4 mg/L"}]}
{"molecule": "[Na+].[Na+].[O-]c1c2ccccc2c([O-])c2ccccc12", "note": "[AHQ, dialkali salt solution, anthrahydroquinone di-alkali salt]", "values": [{"measurement": "reducing sulfides (comparison in words)", "setting": "[4]", "result": "superior to AHQ neutral slurry in reducing sulfides"}, {"measurement": "sulfides on day 3 of treatment", "setting": "[4]; Test Series #2 procedure (no settling)", "result": 7.4, "unit": "mg/L"}, {"measurement": "Sulfides Day 1", "setting": "[5]; centrifugation 20 sec", "result": "29 mg/L and 31 mg/L"}, {"measurement": "Sulfides Day 2", "setting": "[5]; centrifugation 20 sec", "result": "37.6 mg/L and 45.2 mg/L"}, {"measurement": "Sulfides Day 3", "setting": "[5]; centrifugation 20 sec", "result": "42 mg/L and 48.6 mg/L"}, {"measurement": "Sulfides Day 1", "setting": "[5]; centrifugation 60 sec", "result": "36.6 mg/L and 21.8 mg/L"}, {"measurement": "Sulfides Day 2", "setting": "[5]; centrifugation 60 sec", "result": "50.8 mg/L and 37 mg/L"}, {"measurement": "Sulfides Day 3", "setting": "[5]; centrifugation 60 sec", "result": "53.6 mg/L and 42.6 mg/L"}]}
{"molecule": "O=C1c2ccccc2C(=O)c2ccccc21", "note": "[AQ, anthraquinone]", "values": [{"measurement": "inhibiting H2S biogeneration from SRB biofilms (comparison in words)", "setting": "[1]", "result": "comparable to THPS treatment"}, {"measurement": "Sulfides Day 1", "setting": "[1]", "result": "22.6 mg/L and 19 mg/L"}, {"measurement": "Sulfides Day 2", "setting": "[1]", "result": "41.2 mg/L and 34.6 mg/L"}, {"measurement": "Sulfides Day 3", "setting": "[1]", "result": "46.2 mg/L and 40.8 mg/L"}, {"measurement": "Sulfides Day 1", "setting": "[2]; spun 20 sec, 0.254 mg AHQ or AQ, day 1", "result": "43.8 mg/L and 33.8 mg/L"}, {"measurement": "Sulfides Day 2", "setting": "[2]; spun 20 sec, 0.254 mg AHQ or AQ, day 2", "result": "54.2 mg/L and 50.2 mg/L"}, {"measurement": "Sulfides Day 1", "setting": "[3]", "result": "33.2 mg/L and 30.4 mg/L"}, {"measurement": "Sulfides Day 2", "setting": "[3]", "result": "40 mg/L and 38.8 mg/L"}, {"measurement": "Sulfides Day 3", "setting": "[3]", "result": "44.4 mg/L and 43.2 mg/L"}]}
{"molecule": "tetrakishydroxymethylphosphonium sulfate [THPS]", "values": [{"measurement": "Sulfides Day 1", "setting": "[1]", "result": "18 mg/L and 19.8 mg/L"}, {"measurement": "Sulfides Day 2", "setting": "[1]", "result": "39.6 mg/L and 38.4 mg/L"}, {"measurement": "Sulfides Day 3", "setting": "[1]", "result": 46.2, "unit": "mg/L"}]}
